According to ChEMBL document CHEMBL4431300 (Medchemcomm, 2016):
≈ marks a conversion by molar mass, not a printed value. Calls of active or inactive are those of the source. The rule behind the calls is not given here.

How the values were obtained:
[1] = tested on: Chorioallantoic membrane; assay: (§1) Antiangiogenic activity in chicken fertilized egg chorioallantoic membrane assessed as avascular zone by measuring reduction in number of branching points at 36 ug/kg/day, iv administered as bolus dose on embryo development day 11 for 3 days by epifluorescence microscopic analysis relative to control; type: functional; conditions: Gallus gallus
[2] = tested on: A2780; assay: Antitumor activity against human A2780 cells implanted in chicken fertilized egg chorioallantoic membrane assessed as tumor growth inhibition at 435 ug/kg/day, iv administered as bolus dose on embryo development day 11 for 3 days measured up to 8 days post treatment relative to control; type: functional; conditions: Gallus gallus, read-out: TGI
[3] = tested on: HEK293; assay: Antiproliferative activity against HEK293 cells after 72 hrs at 37 degC by CellTiter-Glo luminescence assay; type: cell-based; conditions: Homo sapiens, HEK293, 72 h
[4] = tested on: A2780; assay: Antitumor activity against human A2780 cells implanted in chicken fertilized egg chorioallantoic membrane assessed as tumor growth inhibition at 64 ug/kg/day, iv administered as bolus dose on embryo development day 11 for 3 days measured up to 8 days post treatment relative to control; type: functional; conditions: Gallus gallus, read-out: TGI
[5] = tested on: Chorioallantoic membrane; assay: (§2) Antiangiogenic activity in chicken fertilized egg chorioallantoic membrane assessed as inhibition of vascular sprout formation at 435 ug/kg/day, iv administered as single bolus dose 1 min post 5 Jcm'-2 light irradiation on embryo development day 11 measured 24 hrs post dose by epifluorescence microscopic analysis; type: functional, organism-based; conditions: Gallus gallus
[6] = Antiproliferative activity against immortalized human ECRF24 cells after 72 hrs at 37 degC by CellTiter-Glo luminescence assay; type: functional; conditions: ECRF24, 72 h
[7] = tested on: Chorioallantoic membrane; assay: as §2, with “64” for “435”; type: functional, organism-based; conditions: Gallus gallus
[8] = Antiproliferative activity against human A2780cis cells after 72 hrs at 37 degC by MTT assay; type: functional, cell-based
[9] = tested on: A2780; assay: Antiproliferative activity against human A2780 cells after 72 hrs at 37 degC by MTT assay; type: functional, cell-based; conditions: A2780, 72 h
[10] = organism: Homo sapiens; assay: Antimigratory activity against human ECRF24 cells assessed as wound closure at 6 to 50 uM after 7 hrs by wound healing assay; type: functional, cell-based
[11] = Antiproliferative activity against embryonic stem cells in intact mouse embryoid bodies; type: functional, cell-based
[12] = tested on: Chorioallantoic membrane; assay: as §1, with “20” for “36”; type: functional; conditions: Gallus gallus
[13] = tested on: Chorioallantoic membrane; assay: as §1, with “55” for “36”; type: functional; conditions: Gallus gallus
[14] = tested on: Chorioallantoic membrane; assay: as §2, with “inhibition” for “inhibition of”, “97” for “435”; type: functional, organism-based; conditions: Gallus gallus
[15] = tested on: A2780; assay: Antitumor activity against human A2780 cells implanted in chicken fertilized egg chorioallantoic membrane assessed as tumor growth inhibition at 487 ug/kg/day, iv administered as bolus dose on embryo development day 11 for 3 days measured up to 8 days post treatment relative to control; type: functional; conditions: Gallus gallus, read-out: TGI
[16] = tested on: Chorioallantoic membrane; assay: as §2, with “487” for “435”; type: functional, organism-based; conditions: Gallus gallus
[17] = tested on: Chorioallantoic membrane; assay: as §1, with “49” for “36”; type: functional; conditions: Gallus gallus

SMILES	inhibition in vivo at 0.036 mg/kg/day [1]	inhibition in vivo at 0.435 mg/kg/day [2]	IC50 [3]	inhibition in vivo at 0.064 mg/kg/day [4]	inhibition [5]	IC50 [6]	inhibition [7]	IC50 [8]	IC50 [9]	Activity [10]	IC50 [11]	inhibition in vivo at 0.02 mg/kg/day [12]	inhibition in vivo at 0.055 mg/kg/day [13]	inhibition [14]	inhibition in vivo at 0.487 mg/kg/day [15]	inhibition [16]	inhibition in vivo at 0.049 mg/kg/day [17]
CCCCCCCCCCCCCCCCCCOC(=O)CCCc1ccc(N(CCCl)CCCl)cc1	20%	49.5%	> 200 µM	53%	inactive	89 µM	Active	> 200 µM	> 200 µM	inactive	–	–	–	–	–	–	–
O=C(O)CCCc1ccc(N(CCCl)CCCl)cc1 [CHLORAMBUCIL]	–	–	25 µM	–	–	8 µM	–	43 µM	12 µM	–	1.25 µg/mL (≈ 4.11 µM)	33%	–	–	–	–	–
O=C(CCCc1ccc(N(CCCl)CCCl)cc1)OCCC(F)(F)C(F)(F)C(F)(F)C(F)(F)C(F)(F)C(F)(F)C(F)(F)C(F)(F)C(F)(F)C(F)(F)F	–	–	> 200 µM	–	–	66 µM	–	> 200 µM	> 200 µM	inactive	–	–	59%	inactive	70%	inactive	–
O=C(CCCc1ccc(N(CCCl)CCCl)cc1)OCCC(F)(F)C(F)(F)C(F)(F)C(F)(F)C(F)(F)C(F)(F)C(F)(F)C(F)(F)F	–	–	57 µM	–	–	52 µM	–	25 µM	38 µM	–	–	–	–	–	–	–	29%
